Data published in patent US10112929B2, “Lactams as inhibitors of rock” (BRISTOL-MYERS SQUIBB COMPANY, priority 2015, dated 2018).
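Also: rho kinase enzyme reaction halted with EDTA, phospho- and non-phospho peptide separated for read-out, kinase activity inhibition derived across a dose-response series, DMSO under 2%.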

The compounds below were run against ROCK2 (Homo sapiens (Human), UniProt O75116) (assay: biochemical).
Sequence of ROCK2 (O75116 whole entry, species assumed): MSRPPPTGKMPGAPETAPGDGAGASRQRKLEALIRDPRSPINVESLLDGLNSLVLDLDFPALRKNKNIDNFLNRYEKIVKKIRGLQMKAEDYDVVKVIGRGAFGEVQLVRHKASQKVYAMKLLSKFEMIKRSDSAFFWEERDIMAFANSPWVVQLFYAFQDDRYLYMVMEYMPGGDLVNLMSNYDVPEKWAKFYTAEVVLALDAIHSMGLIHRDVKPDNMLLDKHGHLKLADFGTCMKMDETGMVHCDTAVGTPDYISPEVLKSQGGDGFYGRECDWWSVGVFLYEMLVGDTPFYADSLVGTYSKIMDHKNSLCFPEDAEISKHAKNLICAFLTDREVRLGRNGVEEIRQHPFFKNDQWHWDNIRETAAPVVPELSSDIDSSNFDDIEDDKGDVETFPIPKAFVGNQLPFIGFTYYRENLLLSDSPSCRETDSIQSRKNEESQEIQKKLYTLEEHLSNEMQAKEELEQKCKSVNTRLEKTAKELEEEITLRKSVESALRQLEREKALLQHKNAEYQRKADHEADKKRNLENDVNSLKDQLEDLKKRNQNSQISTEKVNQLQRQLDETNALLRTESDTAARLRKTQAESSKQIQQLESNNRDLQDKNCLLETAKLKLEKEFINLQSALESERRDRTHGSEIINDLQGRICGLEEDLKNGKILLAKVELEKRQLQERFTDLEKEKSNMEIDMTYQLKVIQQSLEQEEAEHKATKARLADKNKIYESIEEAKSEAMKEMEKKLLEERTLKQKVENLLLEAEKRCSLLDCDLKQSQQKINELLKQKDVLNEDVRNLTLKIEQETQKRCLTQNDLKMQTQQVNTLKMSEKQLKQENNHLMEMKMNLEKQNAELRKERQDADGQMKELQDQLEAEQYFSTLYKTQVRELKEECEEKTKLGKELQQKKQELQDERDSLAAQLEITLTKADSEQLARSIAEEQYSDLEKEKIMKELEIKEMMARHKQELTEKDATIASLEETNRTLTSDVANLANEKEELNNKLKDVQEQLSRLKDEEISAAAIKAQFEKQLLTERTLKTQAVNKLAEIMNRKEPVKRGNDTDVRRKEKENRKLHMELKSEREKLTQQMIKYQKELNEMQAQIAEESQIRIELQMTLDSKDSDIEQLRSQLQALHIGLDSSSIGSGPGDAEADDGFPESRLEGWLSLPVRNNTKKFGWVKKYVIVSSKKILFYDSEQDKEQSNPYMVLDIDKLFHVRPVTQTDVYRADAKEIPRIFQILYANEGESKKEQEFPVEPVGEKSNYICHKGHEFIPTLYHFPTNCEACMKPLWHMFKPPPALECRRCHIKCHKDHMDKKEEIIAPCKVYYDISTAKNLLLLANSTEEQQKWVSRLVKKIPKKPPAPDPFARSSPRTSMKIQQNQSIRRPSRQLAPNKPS
For `O=C1C(Nc2ccccc2)CCN1c1ccc(-c2cn[nH]c2)cc1` (stereo not shown) [Example 58, 1-(4-(1H-pyrazol-4-yl)phenyl)-3-(phenylamino)pyrrolidin-2-one], the IC50 was 10 to 100 nM. In the case of `COc1cccc(N[C@@H]2CCN(c3ccc(-c4cn[nH]c4)cc3)C2=O)c1` [Example 383, (R)-1-(4-(1H-Pyrazol-4-yl)phenyl)-3-((3-methoxyphenyl)amino)pyrrolidin-2-one], the IC50 is reported as < 10 nM. With `Cc1nc(N2CCC(Nc3cccc(OC(F)F)c3)C2=O)ccc1-c1cn[nH]c1` (single isomer, unassigned) [Example 201, 3-((3-(difluoromethoxy)phenyl)amino)-1-(6-methyl-5-(1H-pyrazol-4-yl)pyridin-2-yl)pyrrolidin-2-one] the IC50 was 10 to 100 nM. In the case of `COc1cc(F)cc(NC2CCN(c3ccc(-c4cn[nH]c4)c(F)c3F)C2=O)c1` (single isomer, unassigned) [Example 310, 1-(2,3-difluoro-4-(1H-pyrazol-4-yl)phenyl)-3-((3-fluoro-5-methoxyphenyl)amino)pyrrolidin-2-one], the IC50 is reported as < 10 nM. In the case of `CCc1nc(N2CCC(Nc3ccc(F)c(OC)c3)C2=O)ccc1-c1cn[nH]c1` (single isomer, unassigned) [Example 317, 1-(6-ethyl-5-(1H-pyrazol-4-yl)pyridin-2-yl)-3-((4-fluoro-3-methoxyphenyl)amino) pyrrolidin-2-one], the IC50 is reported as < 10 nM. Compound `COc1cc(NC2CCN(c3ccc(-c4cn[nH]c4)c(C(F)(F)F)c3)C2=O)ccc1F` (single isomer, unassigned) [Example 371, 1-(4-(1H-pyrazol-4-yl)-3-(trifluoromethyl)phenyl)-3-((4-fluoro-3-methoxyphenyl)amino)pyrrolidin-2-one] has an IC50 of 100 to 2200 nM. For `Cc1cccc(OC2CCN(c3ccc(-c4cn[nH]c4)cc3)C2=O)c1` (stereo not shown) [Example 109, 1-(4-(1H-pyrazol-4-yl)phenyl)-3-(m-tolyloxy)pyrrolidin-2-one], the IC50 was 100 to 2200 nM. With `CCc1cc(N2CCC(Nc3cccc(OCC4CC4)c3)C2=O)ccc1-c1cn[nH]c1` (single isomer, unassigned) [Example 247, 3-((3-(cyclopropylmethoxy)phenyl)amino)-1-(3-ethyl-4-(1H-pyrazol-4-yl)phenyl)pyrrolidin-2-one] the IC50 was 10 to 100 nM. Work on `COc1nc(N2CCC(Nc3cccc(OC(C)C)c3)C2=O)ccc1-c1cn[nH]c1` (racemic) [Example 267, 3-((3-isopropoxyphenyl)amino)-1-(6-methoxy-5-(1H-pyrazol-4-yl)pyridin-2-yl)pyrrolidin-2-one] yielded an IC50 of 10 to 100 nM. `COc1ccc(C(=O)OC2CCN(c3ccc(-c4cn[nH]c4)cc3)C2=O)c(N)c1` (racemic) [Example 327, 1-(4-(1H-pyrazol-4-yl)phenyl)-2-oxopyrrolidin-3-yl2-amino-4-methoxybenzoate] showed an IC50 of 100 to 2200 nM. For `COc1nc(N2CCC(N3CC(C)OC(C)C3)C2=O)ccc1-c1cn[nH]c1` (racemic) [Example 275, 3-(2,6-dimethylmorpholino)-1-(6-methoxy-5-(1H-pyrazol-4-yl)pyridin-2-yl)pyrrolidin-2-one], the IC50 was 100 to 2200 nM. Work on `COc1cccc(NC2CCN(c3ccc(-c4ccnc5[nH]ccc45)cc3)C2=O)c1` (single isomer, unassigned) [Example 80, 1-(4-(1H-pyrrolo[2,3-b]pyridin-4-yl)phenyl)-3-((3-methoxyphenyl)amino) pyrrolidin-2-one] yielded an IC50 of 100 to 2200 nM. For `COc1cc(F)cc(NC2CCN(c3ccc(-c4cn[nH]c4)cc3Cl)C2=O)c1` (single isomer, unassigned) [Example 168, 1-(2-chloro-4-(1H-pyrazol-4-yl)phenyl)-3 ((3-fluoro-5-methoxyphenyl)amino) pyrrolidin-2-one], the IC50 was 100 to 2200 nM. `COc1nc(N2CCC(N3CCOc4ccccc43)C2=O)ccc1-c1cn[nH]c1` (racemic) [Example 225, 3-(2H-benzo[b][1,4]oxazin-4(3H)-yl)-1-(6-methoxy-5-(1H-pyrazol-4-yl)pyridin-2-yl)pyrrolidin-2-one] was tested, and the IC50 was < 10 nM. For `COc1nc(N2CCC(N3CC[C@H](O)C3)C2=O)ccc1-c1cn[nH]c1` (mixture of isomers) [Example 295, (3S)-3-hydroxy-1′-(6-methoxy-5-(1H-pyrazol-4-yl)pyridin-2-yl)-[l,3′-bipyrrolidin]-2′-one], the IC50 was 100 to 2200 nM. `COc1cccc(NC2CCN(c3ccc(-c4cn[nH]c4)c(C#N)c3)C2=O)c1` (single isomer, unassigned) [Example 378, 5-(3-((3-methoxyphenyl)amino)-2-oxopyrrolidin-1-yl)-2-(1H-pyrazol-4-yl)benzonitrile] showed an IC50 of 10 to 100 nM. In the case of `COc1cccc(NC2CCN(c3ccc(-c4ccnc(N)c4)cc3)C2=O)c1` (single isomer, unassigned) [Example 77, 1-(4-(2-aminopyridin-4-yl)phenyl)-3-((3-methoxyphenyl)amino)pyrrolidin-2-one], the IC50 is reported as 10 to 100 nM. `COc1cc(F)cc(NC2CCN(c3ccc(-c4cn[nH]c4)nc3)C2=O)c1` (single isomer, unassigned) [Example 302, 1-(6-(1H-pyrazol-4-yl)pyridin-3-yl)-3-((3-fluoro-5-methoxyphenyl)amino)pyrrolidin-2-one] was tested, and the IC50 was < 10 nM. `COc1cccc2c1N(C1CCN(c3ccc(-c4cn[nH]c4)cc3)C1=O)CC2` (single isomer, unassigned) [Example 51, l-(4-(1H-pyrazol-4-yl)phenyl)-3-(7-methoxyindolin-1-yl)pyrrolidin-2-one] was tested, and the IC50 was 10 to 100 nM. In the case of `COc1cc(F)cc(NC2CCN(c3ccc(-c4cn[nH]c4)cc3)C2=O)c1` (stereo not shown) [Example 3, 1-(4-(1H-pyrazol-4-yl)phenyl)-3-((3-fluoro-5-methoxyphenyl)amino)pyrrolidin-2-one], the IC50 is reported as < 10 nM. `COc1cc(NC2CCN(c3ccc(-c4cn[nH]c4)cn3)C2=O)ccc1F` (single isomer, unassigned) [Example 83, 1-(5-(1H-pyrazol-4-yl)pyridin-2-yl)-3-((4-fluoro-3-methoxyphenyl)amino)pyrrolidin-2-one] gave an IC50 of 10 to 100 nM. `O=C1C(Nc2cccc(OCC(F)F)c2)CCN1c1ccc(-c2cn[nH]c2)cc1` (single isomer, unassigned) [Example 238, 1-(4-(1H-pyrazol-4-yl)phenyl)-3-((3-(2,2-difluoroethoxy)phenyl)amino)pyrrolidin-2-one] was tested, and the IC50 was 10 to 100 nM. `O=C1C(Nc2cccc(OCC3CC3)c2)CCN1c1ccc(-c2cn[nH]c2)cc1` (single isomer, unassigned) [Example 233, 1-(4-(1H-pyrazol-4-yl)phenyl)-3-((3-(cyclopropylmethoxy)phenyl)amino) pyrrolidin-2-one] showed an IC50 of 10 to 100 nM. For `COc1nc(N2CCC(Nc3cccc(C(N)=O)c3)C2=O)ccc1-c1cn[nH]c1` (racemic) [Example 258, 3-((1-(6-methoxy-5-(1H-pyrazol-4-yl)pyridin-2-yl)-2-oxopyrrolidin-3-yl)amino)benzamide], the IC50 was < 10 nM. Compound `O=C1C(Cc2c(F)cccc2F)CCN1c1ccc(-c2cn[nH]c2)cc1` (stereo not shown) [Example 94, 1-(4-(1H-pyrazol-4-yl)phenyl)-3-(2,6-difluorobenzyl)pyrrolidin-2-one] has an IC50 of 100 to 2200 nM. With `COc1cc(NC2CCN(c3ccc(-c4cn[nH]c4)c(C)n3)C2=O)ccc1F` (single isomer, unassigned) [Example 194, 3-((4-fluoro-3-methoxyphenyl)amino)-1-(6-methyl-5-(1H-pyrazol-4-yl)pyridin-2-yl)pyrrolidin-2-one] the IC50 was 10 to 100 nM. With `COc1nc(N2CCC(Nc3ccc4c(c3)CS(=O)(=O)C4)C2=O)ccc1-c1cn[nH]c1` (racemic) [Example 263, 3-((2,2-dioxido-l,3-dihydrobenzo[c]thiophen-5-yl)amino)-1-(6-methoxy-5-(1H-pyrazol-4-yl)pyridin-2-yl)pyrrolidin-2-one] the IC50 was 100 to 2200 nM. `COc1cc(NC2CCN(c3cc(C)c(-c4cn[nH]c4)cn3)C2=O)ccc1F` (single isomer, unassigned) [Example 209, 3-((4-fluoro-3-methoxyphenyl)amino)-1-(4-methyl-5-(1H-pyrazol-4-yl)pyridin-2-yl)pyrrolidin-2-one] was tested, and the IC50 was 100 to 2200 nM. For `COc1ccc(NC2CCN(c3ccc(-c4cn[nH]c4)cc3)C2=O)cc1F` (single isomer, unassigned) [Example 13, 1-(4-(1H-Pyrazol-4-yl)phenyl)-3-((3-fluoro-4-methoxyphenyl)amino)pyrrolidin-2-one], the IC50 was 100 to 2200 nM. Compound `COc1cccc(NC2CCN(c3ccc(-c4cn[nH]c4)c(C(F)(F)F)c3)C2=O)c1` (single isomer, unassigned) [Example 367, 1-(4-(1H-pyrazol-4-yl)-3-(trifluoromethyl)phenyl)-3-((3-methoxyphenyl)amino) pyrrolidin-2-one] has an IC50 of 100 to 2200 nM. `COc1cc(N2CCC(Nc3cccc(NS(C)(=O)=O)c3)C2=O)ccc1-c1cn[nH]c1` (stereo not shown) [Example 73, N-(3-((1-(3-methoxy-4-(1H-pyrazol-4-yl)phenyl)-2-oxopyrrolidin-3-yl)amino)phenyl)methanesulfonamide] gave an IC50 of 10 to 100 nM. Work on `COc1cc(NC2CCN(c3ccc(-c4cn[nH]c4)c(C)c3)C2=O)cc(OC)c1` (single isomer, unassigned) [Example 366, 3-((3,5-dimethoxyphenyl)amino)-1-(3-methyl-4-(1H-pyrazol-4-yl)phenyl) pyrrolidin-2-one] yielded an IC50 of 100 to 2200 nM. `Cc1cccc(NC2CCN(c3ccc(-c4cn[nH]c4)cc3)C2=O)c1` (stereo not shown) [Example 2, 1-(4-(1H-pyrazol-4-yl)phenyl)-3-(m-tolylamino)pyrrolidin-2-one] was tested, and the IC50 was 10 to 100 nM. `CCc1cc(N2CCC(Nc3cccc(OC)c3)C2=O)ncc1-c1cn[nH]c1` (single isomer, unassigned) [Example 203, 1-(4-ethyl-5-(1H-pyrazol-4-yl)pyridin-2-yl)-3-((3-methoxyphenyl)amino) pyrrolidin-2-one] showed an IC50 of 100 to 2200 nM. For `COc1c(F)cccc1NC1CCN(c2ccc(-c3cn[nH]c3)cc2)C1=O` (stereo not shown) [Example 1, 1-(4-(1H-Pyrazol-4-yl)phenyl)-3-((3-fluoro-2-methoxyphenyl)amino)pyrrolidin-2-one], the IC50 was < 10 nM. With `CCOc1cc(N2CCC(Nc3cc(F)cc(OC)c3)C2=O)ccc1-c1cn[nH]c1` (single isomer, unassigned) [Example 36, 1-(3-ethoxy-4-(1H-pyrazol-4-yl)phenyl)-3-((3-fluoro-5-methoxyphenyl)amino)pyrrolidin-2-one] the IC50 was < 10 nM. `O=C1C(c2cccc(F)c2)CCN1c1ccc(-c2cn[nH]c2)cc1` (stereo not shown) [Example 102, 1-(4-(1H-pyrazol-4-yl)phenyl)-3-(3-fluorophenyl)pyrrolidin-2-one] gave an IC50 of 100 to 2200 nM.
